Assay results published in US7115623B2, “PDE IV inhibitors” (Aska Pharmaceuticals Co., Ltd., priority 2001, dated 2006).

What was measured:
[1] = system: PDE IV isozymes separated from U937 culture cells; assay: PDE IV inhibition ([3H]-cAMP hydrolysis); assay type: biochemical; conditions: cAMP 1 μM as substrate, 30° C., 20 minutes, Probit method
Protocol: PDE IV isozymes as used herein were separated from U937 culture cells by using an anion exchange chromatography. Type IV PDE isozyme was admixed with ethylene glycol (EG) to adjust the final EG concentration to 30%, then stored at −20° C. and diluted when used. The enzymatic activity for PDE IV was measured using cAMP as a substrate.
Each test compound was dissolved in DMSO to adjust the final concentration to 1% (2.5 μl/tube). Incubation buffer solution (pH7.5): • Tris-HCl (50 mM), magnesium chloride (6 mM), dithiothreitol (2.5 mM), 5-nucleotidase (4 μg/ml), bovine serum albumin (0.23 mg/ml), and cAMP (1 μM).
A mixture of the aforementioned test compound solution and the buffer solution was incubated at 30° C. for 20 minutes. The reaction was quenched by admixing with 1 ml of anion exchange resin slurry (AG1-X8, 200–400 meshes, chloride form; Bio-Rad) to absorb unreacted substrates. After the reaction stopped, the mixture was centrifuged at 800×g for 10 minutes, and the resulting supernatant was collected with vials in 250 μl aliquots. To each vial was added 5 ml of ACS-II (scintillator, Amersham). The radioactivity was measured with a liquid scintillator counter for [^3H]-adenosine and set as the PDE IV activity.

ICR mice = assay: Toxicology study; assay type: in vivo; conditions: oral 300 mg/10 ml/kg
Protocol: Each Compound (Example Nos. 7 and 8) was administered orally to ICR mice (7 animals per group) as a test compound. […] Each test compound was suspended in 0.5% CMC—Na solution and given orally to the animal at a dose of 300 mg/10 ml/kg.

Male Marshall ferrets = assay: Emetic action; assay type: in vivo; conditions: oral, observed within 12 hours, dose = ED50 of Assay Example 2
Protocol: Male Marshall ferrets (each group consisting of 3 animals) as used herein fasted overnight. On the next day, a suspension of each test compound in 0.5% CMC—Na solution was administered orally to the animals. […] Next, each maximum tolerance dose against emesis was obtained. SB207499 was used for the reference compound in this assay.

[2] = system: actively sensitized guinea pigs; assay: Inhibition of antigen-induced immediate asthmatic response (airway resistance, Konzett-Rossler method); assay type: in vivo, Male Hartley outbred guinea pigs; conditions: Cavia porcellus; orally, 60 minutes prior to antigen-challenge, ovalbumin-sensitized guinea pigs, Probit method
Protocol: Male Hartley outbred guinea pigs were sensitized by administering intraperitoneally physiological saline (0.5 ml) containing ovalbumin (1 mg, antigen) and 5×10^9 inactivated Bordetella pertussis dead cells (adjuvant). Eleven to thirteen days after the first sensitization, 0.05 ml of an ovalbumin solution (1 mg/ml) (ovalbumin is dissolved in physiological saline) was administered to the lateroabdominal region of each guinea pig intracutaneously. An establishment of sensitization was checked relying on cutaneous reaction. Only guinea pigs wherein significant reddening responses occurred 5 to 10 minutes later were employed in the next measurement test for airway resistance.
The guinea pigs (3 animals per group) actively sensitized in the above step (1) were employed to measure for their airway pressure according to Konzett-Rossler method (Arch. Exp. Path. Pharmakol., 195, 71 (1940)).
Thirteen days after the final sensitization, guinea pigs fasted overnight, and were on the next day anesthetized with a pentobarbital solution (30 mg/1.2 ml/kg, dissolved in physiological saline, intraperitoneal administration). After the guinea pigs were fixed in a supine position, their trachea was incised followed by insertion with one port of a 4-port cannula. Among the remaining 3 ports, 2 ports were connected to an artificial respirator (Model 683, Harvard). The animals were ventilated with 10 ml/kg of air per ventilation at a rate of 60 beats/min via the artificial respirator from the cannula. One port remainder was connected to a respiratory amplifier (AR-601G, Nihon Kohden, Japan) via an airflow resistance tube (TV-241T, Nihon Kohden, Japan) and a differential pressure transducer (TP-602T, Nihon Kohden, Japan) connected with a control box (RY-111S, Nihon Kohden, Japan). From a catheter inserted into a left carotid artery, blood pressures were monitored with a blood pressure measurement unit (AP641G, NEC Corp., Japan) via a blood pressure transducer (TP-300T, Nihon Kohden, Japan), and heart rates were recorded on a thermal recorder (WT-685G, Nihon Kohden, Japan), relying on blood pressure pulse waves after being led to a cardiograph unit (AT601G, Nihon Kohden, Japan).
After airway pressure became stable, an ovalbumin solution. (1 mg/ml, dissolved in physiological saline) was administered at a dose of 1 ml/kg via a tube with which the right jugular vein of guinea pigs was cannulated.
Each test compound was suspended in 0.5% CMC—Na solution and administered orally with an oral sound at a dose of 0.03 to 20 mg/2 ml/kg 60 minutes prior to the antigen-challenge. Control groups received only 0.5% CMC—Na solution in an equivalent amount. The pentobarbital-anesthetization and tracheal incision were conducted 30 minutes prior to the antigen-challenge.
Each percent reduction of increase in airway resistance (each test compound-administered group versus control group) was calculated according to the equation given below. ED50 was obtained by Probit method.

TNF-α production = assay: Inhibition of TNF-α production in galactosamine- and LPS-stimulation; assay type: in vivo, C3H/HeN mice; conditions: Mus musculus; oral, 1 hour before i.v. galactosamine 800 mg/kg and LPS 5 μg/kg; serum TNF-α by ELISA 1 hour later
Protocol: A suspension of each test compound in 0.5% CMC—Na solution was administered orally to C3H/HeN mice at a dose of 0.10 to 10 mg/kg. One hour later, the animals received intravenously galactosamine at a dose of 800 mg/kg and LPS at a dose 5 μg/kg to raise the induction of TNF-α production. One hour later after the galactosamine- and LPS-administration, amounts of TNF-α in serum samples were measured by ELISA.

Nc1cccc(-n2c(=O)c(CCCc3ccncc3)cc3cccnc32)c1 [Example No. 7, 1-(3-Aminophenyl)-3-[3-(pyridin-4-yl)propyl]-1,8-naphthyridin-2(1H)-one]
IC50 [1]: 0.23 µM
Body weight gain (ICR mice): No reduction of body weight gains was observed
Mortality (ICR mice): None of the animals were died
Other parameters (general health conditions) (ICR mice): no abnormality was observed
Emetic actions at asthmatic response-inhibitory ED50 level (Male Marshall ferrets): no observation for emetic actions
ED50 [2]: 1.1 mg/kg
ED50 (TNF-α production): 0.45 mg/kg
